# Data published in paper PMC12881670, “Investigation into ligand selectivity and bias at the formyl peptide receptor family” (The Journal of Pharmacology and Experimental Therapeutics, 2025).
# Where a SMILES comes first, the peptide text is derived from it. Where no end group is shown, it is not given here. The star is where a group is joined. For = O=C*
# Columns and labels:
# [1] = target: T1, Mm_Fpr1 (Mus musculus, UniProt P33766); assay: BRET receptor-RLuc8 interaction with Arrestin 3-YFP; format: cell-based; settings: for Emax (%) / Log EC50 (M): Arrestin 3 BRET, mean, ND = no interaction detected; for Emax (%): % of response to 1 μM WKYMVm; for Log EC50 (M): log of EC50, HEK293 transient, 10 min
# T1 construct: expressed in transfected cells
# T1 sequence (P33766 1-364): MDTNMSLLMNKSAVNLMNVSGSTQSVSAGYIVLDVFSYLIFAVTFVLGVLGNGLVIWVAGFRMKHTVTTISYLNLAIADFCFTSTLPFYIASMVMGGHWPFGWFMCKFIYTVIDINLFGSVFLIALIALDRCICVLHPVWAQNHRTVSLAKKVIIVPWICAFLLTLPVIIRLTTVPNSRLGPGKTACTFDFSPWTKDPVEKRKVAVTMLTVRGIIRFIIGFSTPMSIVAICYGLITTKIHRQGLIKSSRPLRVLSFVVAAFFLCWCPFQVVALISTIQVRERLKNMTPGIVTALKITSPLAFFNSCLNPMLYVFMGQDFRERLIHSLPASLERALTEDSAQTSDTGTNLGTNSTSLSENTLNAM
# Summary of the method: (§1)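 RLuc8-fused FPR donor with Venus-mGsi or YFP-Arrestin 3 acceptor (1:4), transient; replate 24 h, grow 24–48 h. HBSS 30 min, coelenterazine h 5 μM final 5 min pre-compound, then 10 min 37 °C.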
# [2] = target: T2, Mm_Fpr2 (Mus musculus, UniProt O88536); assay: as above; format: cell-based; settings: for Emax (%) / Log EC50 (M): Arrestin 3 BRET, mean, ND = no interaction detected; for Emax (%): % of response to 1 μM WKYMVm; for Log EC50 (M): log of EC50, HEK293 transient, 10 min
# T2 construct: expressed in transfected cells
# T2 sequence (O88536 1-351): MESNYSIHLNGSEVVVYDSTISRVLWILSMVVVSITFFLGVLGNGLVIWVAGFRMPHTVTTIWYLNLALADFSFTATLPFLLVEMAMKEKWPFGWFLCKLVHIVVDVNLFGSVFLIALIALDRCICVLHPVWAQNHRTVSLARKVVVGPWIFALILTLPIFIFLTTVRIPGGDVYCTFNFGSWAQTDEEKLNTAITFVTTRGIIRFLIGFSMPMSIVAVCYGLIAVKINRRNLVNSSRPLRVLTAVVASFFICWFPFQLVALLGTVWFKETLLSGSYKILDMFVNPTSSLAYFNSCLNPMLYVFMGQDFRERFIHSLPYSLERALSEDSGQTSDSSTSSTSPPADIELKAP
# Summary of the method: as §1
# [3] = target: T3, Hs_FPR1 (Homo sapiens, UniProt P21462); assay: as above; format: cell-based; settings: for Emax (%) / Log EC50 (M): Arrestin 3 BRET, mean, ND = no interaction detected; for Emax (%): % of response to 1 μM WKYMVm; for Log EC50 (M): log of EC50, HEK293 transient, 10 min
# T3 construct: expressed in transfected cells
# T3 sequence (P21462 1-350): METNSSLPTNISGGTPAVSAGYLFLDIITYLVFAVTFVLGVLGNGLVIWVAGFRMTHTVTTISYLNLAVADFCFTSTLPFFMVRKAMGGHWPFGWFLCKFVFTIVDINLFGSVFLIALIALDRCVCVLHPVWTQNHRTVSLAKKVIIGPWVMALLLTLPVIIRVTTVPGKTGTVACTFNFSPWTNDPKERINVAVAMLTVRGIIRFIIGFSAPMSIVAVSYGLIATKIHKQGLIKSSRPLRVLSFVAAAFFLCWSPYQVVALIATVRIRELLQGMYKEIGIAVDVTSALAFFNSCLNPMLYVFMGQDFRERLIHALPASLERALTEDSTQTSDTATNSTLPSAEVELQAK
# Summary of the method: as §1
# [4] = target: T2, Mm_Fpr2; assay: ERK1/2 phosphorylation by Western blotting; format: cell-based; design: Emax: dose or concentration left out as unconfirmed; settings: for Log EC50 (M) / EC50: log of EC50, phosphorylation of ERK1/2, HEK293 stable cells; for Log EC50 (M) / Emax (%) / EC50: mean, ND = no pERK signal detected; for Emax (%): phospho-ERK, % of 1 μM WKYMVm
# [5] = target: T3, Hs_FPR1; assay: ERK1/2 phosphorylation by Western blotting; format: cell-based; design: Emax: dose or concentration left out as unconfirmed; settings: for Log EC50 (M) / EC50: log of EC50, phosphorylation of ERK1/2, HEK293 stable cells; for Log EC50 (M) / Emax (%) / EC50: mean, ND = no pERK signal detected; for Emax (%): phospho-ERK, % of 1 μM WKYMVm
# [6] = target: T4, Hs_FPR2 (Homo sapiens, UniProt P25090); assay: ERK1/2 phosphorylation by Western blotting; format: cell-based; design: Emax: dose or concentration left out as unconfirmed; settings: for Log EC50 (M) / EC50: log of EC50, phosphorylation of ERK1/2, HEK293 stable cells; for Log EC50 (M) / Emax (%) / EC50: mean, ND = no pERK signal detected; for Emax (%): phospho-ERK, % of 1 μM WKYMVm
# T4 construct: expressed in transfected cells
# T4 sequence (P25090 1-351): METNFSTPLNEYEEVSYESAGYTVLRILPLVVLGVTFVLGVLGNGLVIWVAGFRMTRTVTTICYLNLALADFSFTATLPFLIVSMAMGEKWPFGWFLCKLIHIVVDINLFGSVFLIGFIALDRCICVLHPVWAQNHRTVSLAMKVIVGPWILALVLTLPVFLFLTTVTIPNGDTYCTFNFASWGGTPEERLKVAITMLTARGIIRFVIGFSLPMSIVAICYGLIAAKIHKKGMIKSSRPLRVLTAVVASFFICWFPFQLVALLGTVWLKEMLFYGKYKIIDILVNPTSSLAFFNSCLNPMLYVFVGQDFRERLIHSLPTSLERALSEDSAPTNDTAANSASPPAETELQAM
# [7] = target: T1, Mm_Fpr1; assay: Competition binding of fluorescent WKYMVm, flow cytometry; settings: for Log IC50 (M): log of IC50, competition with 10 nM K(5/6-FAM)-WKYMVm, HEK293 stable cells, on ice 90 min; for Log IC50 (M) / Max Comp (%): mean, ND = no competition observed; for Max Comp (%): maximum proportion of competition with 10 nM K(5/6-FAM)-WKYMVm
# Description: (§2) Mean cell fluorescence was then measured for 5000 cells by flow cytometry using either a BD FACScalibur or BD Attune.
# (§3) All data were analyzed using GraphPad Prism using the nonlinear regression log(agonist) versus response (3 parameters) function for all assays, except binding, which was analyzed using the One site-FitlogIC50 function. Bias calculations were carried out following IUPHAR guidelines as described,[27]^,[37] and data were presented as the Δ Activity ratio (Log[EmaxB/EC50B])-(Log[EmaxA/EC50A]).
# [8] = target: T2, Mm_Fpr2; assay: as above; settings: for Log IC50 (M): log of IC50, competition with 10 nM K(5/6-FAM)-WKYMVm, HEK293 stable cells, on ice 90 min; for Log IC50 (M) / Max Comp (%): mean, ND = no competition observed; for Max Comp (%): maximum proportion of competition with 10 nM K(5/6-FAM)-WKYMVm
# Description: as §2, §3
# [9] = target: T3, Hs_FPR1; assay: as above; settings: for Log IC50 (M): log of IC50, competition with 10 nM K(5/6-FAM)-WKYMVm, HEK293 stable cells, on ice 90 min; for Log IC50 (M) / Max Comp (%): mean, ND = no competition observed; for Max Comp (%): maximum proportion of competition with 10 nM K(5/6-FAM)-WKYMVm
# Description: as §2, §3
# [10] = target: T4, Hs_FPR2; assay: as above; settings: for Log IC50 (M): log of IC50, competition with 10 nM K(5/6-FAM)-WKYMVm, HEK293 stable cells, on ice 90 min; for Log IC50 (M) / Max Comp (%): mean, ND = no competition observed; for Max Comp (%): maximum proportion of competition with 10 nM K(5/6-FAM)-WKYMVm
# Description: as §2, §3
Compound,Emax (%) [1],Log EC50 (M) [1],Emax (%) [2],Log EC50 (M) [2],Emax (%) [3],Log EC50 (M) [4],Log EC50 (M) [5],Log EC50 (M) [6],Max Comp (%) [7],Max Comp (%) [8],Log IC50 (M) [9],Max Comp (%) [9],Log IC50 (M) [10],Max Comp (%) [10],Emax [1],Emax [2],Emax [3],Emax [4],Emax [6],Emax [5],also measured
Cc1cccc(-c2oc(C)nc2C(=O)Nc2cnn(Cc3nc(C(C)(F)F)co3)n2)c1 [ACT-389949],52.62%,−5.98 M,95.34%,−7.66 M,86.48%,−8.394 M,−7.37 M,−7.723 M,25.96%,80.31%,−5.265 M,80.70%,−7.434 M,94.77%,–,–,–,–,–,–,Log EC50 (M) [3]: −6.00 M; Emax (%) [4]: 136.1%; Emax (%) [5]: 112.1%; Emax (%) [6]: 81.57%; Log IC50 (M) [7]: −7.070 M; Log IC50 (M) [8]: −7.192 M
COc1cc(F)c([C@@H]2CNC(=O)[C@H]2NC(=O)Nc2ccccc2)c(F)c1 [BMS-986235],–,–,–,–,–,–,–,–,37.54%,78.55%,–,–,–,60.14%,18.2%,100%,5.54%,116%,116%,–,"EC50 [1]: 6.76 nM; efficacy, % of WKYMVm ([1]; Mm_Fpr1, mGsi versus Arrestin3 bias comparison): < 20%; EC50 [2]: 151 nM; EC50 [3]: 2290 nM; EC50 [4]: 3.78 nM; EC50 [5]: 16200 nM; EC50 [6]: 679 nM; IC50 [7]: 1120 nM; IC50 [8]: 72.6 nM; IC50 [10]: 2440 nM; competition with K(5/6-FAM)-WKYMVm ([10]; at 10 μM, incomplete competition): ~50%"
CCCCOc1ccc(C(=O)NN2C(=O)c3ccccc3NC2c2ccc(OC)cc2)cc1 (centres unmarked) [QuinC1],49.50%,−6.33 M,68.75%,−6.40 M,17.25%,−4.94 M,−5.86 M,−5.882 M,52.13%,27.99%,−7.943 M,9.96%,−7.399 M,13.23%,–,–,–,–,–,–,Log EC50 (M) [3]: −5.35 M; Emax (%) [4]: 381.2%; Emax (%) [5]: 92.57%; Emax (%) [6]: 101.7%; Log IC50 (M) [7]: −6.114 M; Log IC50 (M) [8]: −7.98 M
CSCC[C@H](NC(=O)[C@H](Cc1ccc(O)cc1)NC(=O)[C@H](CCCCN)NC(=O)[C@@H](N)Cc1c[nH]c2ccccc12)C(=O)N[C@H](C(=O)N[C@H](CCSC)C(N)=O)C(C)C [WKYMVm],–,–,–,–,–,–,–,–,–,–,–,–,–,–,112%,101%,105%,118%,93.8%,104%,–
"CSCC[C@H](NC=O)C(=O)N[C@@H](CC(C)C)C(=O)N[C@@H](Cc1ccccc1)C(=O)N[C@@H](CCCCN)C(=O)O [fMLFK, fMet-Leu-Phe-Lys] (For-MLFK-OH)",–,–,–,–,–,–,–,–,72.44%,30.81%,–,63.28%,–,14.72%,95.2%,72.5%,97.4%,176%,74.3%,112%,EC50 [1]: 7240 nM; EC50 [2]: 16200 nM; EC50 [3]: 35.5 nM; EC50 [4]: 1240 nM; EC50 [5]: 6.85 nM; EC50 [6]: 1320 nM; IC50 [7]: 8260 nM; IC50 [8]: 828 nM; IC50 [9]: 586 nM; IC50 [10]: 1.47 nM
LESIFRSLLFRVM [MMK1],–,–,–,–,–,−6.482 M,−6.84 M,−8.646 M,–,–,−10.05 M,6.82%,−5.88 M,100%,–,–,–,86.6%,114%,40.1%,–
